Like-named read-outs stand apart in the source and are kept apart here.
Legend:
[1] = Liver microsomal metabolic stability, rat liver microsomes (RLM); conditions: rat, liver microsomes, t1/2 (min) in RLM, 1 μM compound, 1 mg/mL microsomes, NADPH
[2] = ADME solubility determination in PBS at pH 2.0 and pH 7.4; format: physicochemical; conditions: phosphate buffered saline, 25 °C, thermodynamic from solid
Procedure, shortened: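 Solubility was read by LC-MS/MS on centrifuged supernatants, calibrated to a known-concentration standard and corrected for dilution. Compound, dried down from 10 mM DMSO stock, was equilibrated 24 h at 25° C with shaking in PBS at pH 2.0 or pH 7.4.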

[3] = tested on: Ub-PCNA levels in the nucleus of ES2 cells (USP1 activity); test: ES2 Ub-PCNA immunofluorescence (IF) assay; format: cell-based; conditions: Homo sapiens, ES-2; ES2 cells, 3 hours, Ub-PCNA immunofluorescence; read-out: USP1 IC50 (Ub-PCNA)
Procedure, shortened: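 AC50 derived from percent Ub-PCNA-positive nuclei, positivity set by a 95% cutoff from untreated-well intensities. Readout by imaging immunofluorescence (anti-Ub-PCNA, DAPI nuclear mask) after methanol fixation. Compound exposure: 3 h at 37° C, 0.3% DMSO final, on cells plated overnight.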

[4] = Liver microsomal metabolic stability, human liver microsomes (HLM); conditions: human, liver microsomes
USP1/UAF1 enzyme = USP1/UAF1 enzyme (Homo sapiens, UniProt O94782); test: USP1/UAF1 deubiquitination assay (ubiquitin-rhodamine 110 substrate); format: biochemical; conditions: read-out: USP1 IC50 (Ub-Rho)
Sequence of USP1/UAF1 enzyme (O94782 whole entry): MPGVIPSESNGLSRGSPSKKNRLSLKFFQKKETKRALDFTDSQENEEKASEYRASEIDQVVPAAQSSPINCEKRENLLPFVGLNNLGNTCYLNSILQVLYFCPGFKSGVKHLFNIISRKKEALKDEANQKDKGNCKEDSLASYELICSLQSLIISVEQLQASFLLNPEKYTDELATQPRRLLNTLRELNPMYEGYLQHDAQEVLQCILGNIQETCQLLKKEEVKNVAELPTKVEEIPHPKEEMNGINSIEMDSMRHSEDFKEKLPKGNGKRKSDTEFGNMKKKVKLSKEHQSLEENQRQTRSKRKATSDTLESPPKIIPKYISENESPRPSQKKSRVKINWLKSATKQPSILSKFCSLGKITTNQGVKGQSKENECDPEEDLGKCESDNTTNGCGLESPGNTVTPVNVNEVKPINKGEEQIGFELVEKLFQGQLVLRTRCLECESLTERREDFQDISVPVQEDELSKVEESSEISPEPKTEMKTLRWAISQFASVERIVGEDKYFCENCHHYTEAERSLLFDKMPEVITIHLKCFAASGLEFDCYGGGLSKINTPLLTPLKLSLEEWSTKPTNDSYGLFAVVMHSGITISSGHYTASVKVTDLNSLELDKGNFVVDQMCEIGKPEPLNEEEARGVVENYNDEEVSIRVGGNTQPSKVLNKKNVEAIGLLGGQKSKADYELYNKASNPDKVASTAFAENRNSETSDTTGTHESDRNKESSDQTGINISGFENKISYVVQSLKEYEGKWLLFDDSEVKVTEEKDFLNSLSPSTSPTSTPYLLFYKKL
Sequence of USP1/UAF1 enzyme (Q8TAF3 whole entry partner): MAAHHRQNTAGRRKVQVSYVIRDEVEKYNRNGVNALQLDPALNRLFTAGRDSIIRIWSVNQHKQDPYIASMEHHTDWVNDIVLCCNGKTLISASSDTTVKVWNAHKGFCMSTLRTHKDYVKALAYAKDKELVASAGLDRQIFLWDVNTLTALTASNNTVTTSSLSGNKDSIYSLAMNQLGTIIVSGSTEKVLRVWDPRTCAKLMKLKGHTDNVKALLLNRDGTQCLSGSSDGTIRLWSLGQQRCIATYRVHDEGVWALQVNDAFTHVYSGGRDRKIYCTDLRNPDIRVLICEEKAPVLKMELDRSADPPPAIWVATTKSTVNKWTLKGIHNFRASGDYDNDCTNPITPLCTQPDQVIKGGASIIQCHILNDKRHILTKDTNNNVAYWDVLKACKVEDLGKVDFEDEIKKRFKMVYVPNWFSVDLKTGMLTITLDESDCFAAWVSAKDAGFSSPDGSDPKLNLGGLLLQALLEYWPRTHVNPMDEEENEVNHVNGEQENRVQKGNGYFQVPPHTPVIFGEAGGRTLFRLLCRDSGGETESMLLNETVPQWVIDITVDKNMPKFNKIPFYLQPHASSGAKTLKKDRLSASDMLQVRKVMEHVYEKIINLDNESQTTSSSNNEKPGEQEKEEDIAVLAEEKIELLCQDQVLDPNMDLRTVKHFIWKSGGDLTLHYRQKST
Procedure, shortened: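 Cleavage of 150 nM ubiquitin-rhodamine 110 by 0.05 nM USP1/UAF1 was followed as fluorescence (Ex480/Em540, kinetic, 30 min) in Tris-HCl pH 7.8 buffer with EDTA, BSA, DTT and Tween-20. Compounds, top 10 μM, were preincubated with enzyme 10 min; % inhibition against no-enzyme and DMSO wells gave four-parameter IC50s.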

[5] = pH 2, aqueous buffer, PBS pH 2.0, 25° C., read-out: Solubility at pH 2.0
[6] = pH 7.4, aqueous buffer, PBS pH 7.4, 25° C., read-out: Solubility at pH 7.4

SMILES	half-life at 1 μM [1] [min]	solubility at 24 h [2, 5] [µM]	solubility at 24 h [2, 6] [µM]	IC50 [3] [nM]	half-life at 1 μM [4] [min]	IC50 (USP1/UAF1 enzyme) [nM]
CCn1cc(C(F)(F)F)nc1-c1ccc(NC2c3cc(-c4c(Cl)cnn4C(C)C)nn3CCC2(C)C)cc1 (stereo not drawn) [Example 352, 2-(4-chloro-1-isopropyl-1H-pyrazol-5-yl)-N-(4-(1-ethyl-4-(trifluoromethyl)-1H-imidazol-2-yl)phenyl)-5,5-dimethyl-4,5,6,7-tetrahydropyrazolo[1,5-α]pyridin-4-amine]	< 25	< 10	< 10	< 100	> 25	< 100
CCn1cc(C(F)(F)F)nc1-c1ccc(CN2CC(N)Cn3nc(-c4c(Cl)cnn4C(C)C)cc32)cc1F (stereo not drawn) [Example 353, 2-(4-chloro-1-isopropyl-1H-pyrazol-5-yl)-4-(4-(1-ethyl-4-(trifluoromethyl)-1H-imidazol-2-yl)-3-fluorobenzyl)-4,5,6,7-tetrahydropyrazolo[1,5-α]pyrimidin-6-amine]	< 25	≥ 10	< 10	< 100	< 25	< 100
CCn1cc(C(F)(F)F)nc1-c1ccc(NC2CCCc3nn(-c4ccccc4C(C)C)cc32)cc1F (stereo not drawn) [Example 355, N-(4-(1-ethyl-4-(trifluoromethyl)-1H-imidazol-2-yl)-3-fluorophenyl)-2-(2-isopropylphenyl)-4,5,6,7-tetrahydro-2H-indazol-4-amine]	< 25	< 10	< 10	100 to 500	< 25	< 100
CCn1cc(C(F)(F)F)nc1-c1ccc(NC2CCCCn3nc(-c4c(Cl)cnn4C(C)C)cc32)cc1 (stereo not drawn) [Example 357, 2-(4-chloro-1-isopropyl-1H-pyrazol-5-yl)-N-(4-(1-ethyl-4-(trifluoromethyl)-1H-imidazol-2-yl)phenyl)-5,6,7,8-tetrahydro-4H-pyrazolo[1,5-α]azepin-4-amine]	< 25	< 10	< 10	< 100	< 25	< 100
CCn1cc(C(F)(F)F)nc1-c1ccc(CN2C(=O)CCn3nc(-c4c(OC(F)F)ncnc4C4CC4)nc32)cc1 [Example 364, 2-(4-cyclopropyl-6-(difluoromethoxy)pyrimidin-5-yl)-4-(4-(1-ethyl-4-(trifluoromethyl)-1H-imidazol-2-yl)benzyl)-6,7-dihydro-[1,2,4]triazolo[1,5-α]pyrimidin-5(4H)-one]	> 25	< 10	< 10	< 100	> 25	< 100

Other lines, results leading:

half-life at 1 μM [1] [min]	solubility at 24 h [2, 5] [µM]	solubility at 24 h [2, 6] [µM]	IC50 [3] [nM]	half-life at 1 μM [4] [min]	IC50 (USP1/UAF1 enzyme) [nM]	SMILES
< 25	< 10	< 10	< 100	> 25	< 100	CCn1cc(C(F)(F)F)nc1-c1ccc(OC2CCCCn3nc(-c4c(Cl)cnn4C(C)C)cc32)cc1 (stereo not drawn) [Example 358, 2-(4-chloro-1-isopropyl-1H-pyrazol-5-yl)-4-(4-(1-ethyl-4-(trifluoromethyl)-1H-imidazol-2-yl)phenoxy)-5,6,7,8-tetrahydro-4H-pyrazolo[1,5-α]azepine]
< 25	≥ 10	< 10	< 100	< 25	< 100	CCn1cc(C(F)(F)F)nc1-c1ccc(CC2c3cc(-c4c(Cl)cnn4C(C)C)nn3CCN2C)cc1 (stereo not drawn) [Example 360, 2-(4-chloro-1-isopropyl-1H-pyrazol-5-yl)-4-(4-(1-ethyl-4-(trifluoromethyl)-1H-imidazol-2-yl)benzyl)-5-methyl-4,5,6,7-tetrahydropyrazolo[1,5-α]pyrazine]
< 25	≥ 10	≥ 10	100 to 500	< 25	< 100	CCn1cc(C(F)(F)F)nc1-c1ccc(CC2c3cc(-c4c(OC)ncnc4C4CC4)nn3CCN2C)cc1 (stereo not drawn) [Example 362, 2-(4-cyclopropyl-6-methoxypyrimidin-5-yl)-4-(4-(1-ethyl-4-(trifluoromethyl)-1H-imidazol-2-yl)benzyl)-5-methyl-4,5,6,7-tetrahydropyrazolo[1,5-a]pyrazine]
> 25	< 10	< 10	< 100	> 25	< 100	COc1c(CN2C(=O)CCn3nc(-c4c(OC(F)F)ncnc4C4CC4)nc32)ccc(-c2nc(C(F)(F)F)cn2C(C)C)c1F [Example 365, 2-(4-cyclopropyl-6-(difluoromethoxy)pyrimidin-5-yl)-4-(3-fluoro-4-(1-isopropyl-4-(trifluoromethyl)-1H-imidazol-2-yl)-2-methoxybenzyl)-6,7-dihydro-[1,2,4]triazolo[1,5-a]pyrimidin-5(4H)-one]
> 25	< 10	< 10	< 100	> 25	< 100	CCn1cc(C(F)(F)F)nc1-c1ccc(CN2C(=O)CCn3nc(-c4c(OC(F)F)ncnc4C4CC4)nc32)cc1F [Example 370, 2-(4-cyclopropyl-6-(difluoromethoxy)pyrimidin-5-yl)-4-(4-(1-ethyl-4-(trifluoromethyl)-1H-imidazol-2-yl)-3-fluorobenzyl)-6,7-dihydro-[1,2,4]triazolo[1,5-a]pyrimidin-5(4H)-one]
< 25	< 10	< 10	< 100	< 25	< 100	CC(C)n1cc(C(F)(F)F)nc1-c1ccc(C(N2CCCn3nc(-c4c(Cl)cnn4C(C)C)cc32)C(F)(F)F)cc1F (stereo not drawn) [Example 371, 2-(4-chloro-1-isopropyl-1H-pyrazol-5-yl)-4-(2,2,2-trifluoro-1-(3-fluoro-4-(1-isopropyl-4-(trifluoromethyl)-1H-imidazol-2-yl)phenyl)ethyl)-4,5,6,7-tetrahydropyrazolo[1,5-α]pyrimidine]

From US20230219965A1 (KSQ Therapeutics, Inc., priority 2020, published 2023)
